# Laboratory results taken from US20030194445A1, “Compositions and methods of use of peptides in combination with biocides and/or germicides” (priority 2001, published 2003).
# Counter-ions that a name gives are not always drawn. Like-named read-outs stand apart in the source and are kept apart here. *: point of attachment. Octanoyl = CCCCCCCC(=O)*
# Tests used:
# K. pneumoniae = test: MIC of biocide actives and formulations, microtiter growth assay
# P. aeruginosa = test: as above
# K. pneumoniae ATCC 27736 [1] = tested on: K. pneumoniae ATCC 27736
# C. albicans ATCC 10231 [2] = test: microbe, parasite or virus in culture; settings: Candida albicans, ATCC10231, read-out: Triclosan MIC
# P. aeruginosa ATCC 10145 [3] = test: microbe, parasite or virus in culture; settings: Pseudomonas aeruginosa, ATCC10145, read-out: Triclosan MIC
# [4] = tested on: S. aureus ATCC 33591 (MRSA); test: microbe, parasite or virus in culture; settings: Staphylococcus aureus, read-out: Triclosan MIC
# [5] = tested on: S. aureus ATCC 33591 (MRSA)
# C. albicans ATCC 10231 [6] = tested on: C. albicans ATCC 10231
# K. pneumoniae ATCC 27736 [7] = test: microbe, parasite or virus in culture; settings: Klebsiella pneumoniae, ATCC27736, read-out: Triclosan MIC
# [8] = tested on: all organisms tested except P. aeruginosa; test: Triclosan plus sub-biocidal peptide, summary over organisms; type: cell-based
# Text: Thus, the potential use rate of triclosan as an antimicrobial is reduced.
# S. cerevisiae ATCC 9763 [9] = tested on: S. cerevisiae ATCC 9763
# E. coli ATCC 25922 [10] = tested on: E. coli ATCC 25922
# P. aeruginosa ATCC 10145 [11] = tested on: P. aeruginosa ATCC 10145
# S. cerevisiae ATCC 9763 [12] = test: microbe, parasite or virus in culture; settings: Saccharomyces cerevisiae, ATCC9763, read-out: Triclosan MIC
# microorganisms = test: Triclosan plus sub-toxic levels of peptide on microbial growth; type: cell-based
# Description: Effect of combinations of triclosan and sub-toxic levels of peptide on microbial growth is assessed. […] Thus, the potential use rate of triclosan as an antimicrobial is shown to be reduced.
# E. coli ATCC 25922 [13] = test: microbe, parasite or virus in culture; settings: Escherichia coli, ATCC25922, read-out: Triclosan MIC
# E. coli = test: Peptide-containing textile fiber, MIC; type: cell-based, Escherichia coli; settings: E. coli in LB media
# Text: Peptide compositions comprising peptides of the present invention and at least one biocide or germicide may be applied by coating or spinning effective amounts of peptide onto or into the desired polymer. The peptides may be prepared in an aqueous solution to use as a coating solution or combined with a polymer. […] A peptide and polymer solution or mixture may be made and undergo casting or formation to the desired shaped article, fiber or film. The shaped article, fiber or film may then be quenched in water or methanol, allowed to air dry or dry under an appropriate atmosphere to prevent oxidative reactions.
# The resulting solution may be placed into a microscale spinning apparatus and fiber is formed while wet with methanol. The antimicrobial activity of the peptides may be tested in tubes containing LB media innoculated with the peptide-containing fiber and E. coli growing at log phase (1×10^6 to 1×10^7 cells/ml). Aliquots can be taken from the culture tube at periodic intervals and absorbance readings at 600 nm (uv/vis) can be measured in a microcuvette.
# [14] = tested on: microbes such as Salmonella typhimurium and Clostridium botulinum; type: cell-based; settings: food preservative use
# [15] = K. pneumoniae, growth inhibited by >90%
# [16] = P. aeruginosa, growth inhibited by >90%
# [17] = triclosan MIC with octanoyl-RR-NH-octyl at 0.5 ppm
# [18] = triclosan MIC with octanoyl-R-NH-octyl at 4 ppm
compound,measurement,setting,value
"O=CCCCC=O [Aqucar, glutaraldehyde]",MIC,K. pneumoniae; Klebsiella pneumoniae,250 µg/mL
same,MIC,P. aeruginosa; Pseudomonas aeruginosa,500 µg/mL
"CCCCCCCCCCCCNC(=N)N [DGH, dodecylguanidine hydrochloride]",MIC,K. pneumoniae; Klebsiella pneumoniae,2.5 µg/mL
same,MIC,P. aeruginosa; Pseudomonas aeruginosa,10 µg/mL
"N#CSCSC#N [MBT, methylene bis(thiocyanate)]",MIC,K. pneumoniae; [15],0.6 µg/mL
same,MIC,P. aeruginosa; [16],0.6 µg/mL
"O=[N+]([O-])C(Br)(CO)CO [Myacide, 2-bromo-2-nitropropane-1,3-diol]",MIC,K. pneumoniae; Klebsiella pneumoniae,10 µg/mL
same,MIC,P. aeruginosa; Pseudomonas aeruginosa,1.3 µg/mL
"Oc1cc(Cl)ccc1Oc1ccc(Cl)cc1Cl [Triclosan, 2,4,4′-trichloro-2′-hydroxydiphenylether]",Triclosan plus constant [peptide],K. pneumoniae ATCC 27736 [1]; [17],0.031 (0.5 ppm) μg/ml
same,Triclosan plus constant [peptide],K. pneumoniae ATCC 27736 [1]; triclosan MIC with octanoyl-RR-NH-octyl at 1 ppm,0.00003 (1 ppm) μg/ml
same,MIC,C. albicans ATCC 10231 [2],8 µg/mL
same,MIC,P. aeruginosa ATCC 10145 [3],> 250 µg/mL
same,MIC,[4],0.015 µg/mL
same,Triclosan plus constant [peptide],[5]; [17],0.002 (0.5 ppm) μg/ml
same,Triclosan plus constant [peptide],C. albicans ATCC 10231 [6]; triclosan MIC with octanoyl-RR-NH-octyl at 2 ppm,4 (2 ppm) μg/ml
same,Triclosan plus constant [peptide],C. albicans ATCC 10231 [6]; triclosan MIC with octanoyl-RR-NH-octyl at 4 ppm,2 (4 ppm) μg/ml
same,MIC,K. pneumoniae ATCC 27736 [7],0.061 µg/mL
same,inhibitory effect of triclosan on addition of sub-biocidal amounts of peptide,[8],substantially increased
same,Triclosan plus constant [peptide],S. cerevisiae ATCC 9763 [9]; triclosan MIC with octanoyl-R-NH-octyl at 2 ppm,2 (2 ppm) μg/ml
same,Triclosan plus constant [peptide],E. coli ATCC 25922 [10]; [18],<0.00003 (4 ppm) μg/ml
same,Triclosan plus constant [peptide],P. aeruginosa ATCC 10145 [11]; [18],>250 (4 ppm) μg/ml
same,MIC,S. cerevisiae ATCC 9763 [12],4 µg/mL
same,inhibitory effect of triclosan with a peptide of the invention in sub-toxic amounts,microorganisms,substantially increase
same,MIC,E. coli ATCC 25922 [13],0.002 µg/mL
"N#CC(Br)(Br)C(N)=O [compound 7287, 2,2-dibromo-3-nitrilo propionamide]",MIC,K. pneumoniae; [15],40.0 µg/mL
same,MIC,P. aeruginosa; [16],40.0 µg/mL
"CCCCCCCCNC(=O)[C@H](CCCNC(=N)N)NC(=O)CCCCCCC [octanoyl-R-NH-octyl, octanoyl-R—NH-octyl]",Peptide MIC,"S. cerevisiae ATCC 9763 [9]; ATCC 9763, 19 h",8 µg/mL
same,Peptide MIC,"E. coli ATCC 25922 [10]; ATCC 25922, 19 h",8 µg/mL
same,Peptide MIC,"P. aeruginosa ATCC 10145 [11]; ATCC 10145, 19 h",8 µg/mL
"CCCCCCCCNC(=O)[C@H](CCCNC(=N)N)NC(=O)[C@H](CCCNC(=N)N)NC(=O)CCCCCCC [octanoyl-RR-NH-octyl, octanoyl-RR—NH-octyl]",Peptide MIC,"K. pneumoniae ATCC 27736 [1]; ATCC 27736, 19 h",4 µg/mL
same,Peptide MIC,"[5]; ATCC 33591, 19 h",2 µg/mL
same,Peptide MIC,"C. albicans ATCC 10231 [6]; ATCC 10231, 19 h",8 µg/mL
Acetyl-Arg-Trp-Arg-Trp-NH2 (Ac-RWRW-NH2),MIC,E. coli,≦31 μg/ml
same,MIC,[14],≦31 μg/ml
Decanoyl-Arg-NH-decyl,MIC,E. coli,≦15 μg/ml
same,MIC,[14],≦8 μg/ml
Nonanoyl-Arg-Arg-NH-nonyl,MIC,E. coli,≦2 μg/ml
Nonanoyl-Arg-NH-nonyl,MIC,[14],≦4 μg/ml
Octanoyl-Arg-Ala-NH-octyl,MIC,[14],≦15 μg/ml
Octanoyl-Arg-Arg-Arg-NH-octyl,MIC,E. coli,≦8 μg/ml
Octanoyl-Arg-Cys-NH-octyl,MIC,[14],≦15 μg/ml
Octanoyl-Arg-Phe-Phe-Arg-NH-octyl (Octanoyl-RFFR-{NH‑octyl}),MIC,E. coli,≦4 μg/ml
Octanoyl-Arg-Trp-NH2,MIC,E. coli,≦15 μg/ml
same,MIC,[14],≦15 μg/ml
Octanoyl-Arg-Trp-Phe-NH2,MIC,E. coli,≦15 μg/ml
Octanoyl-Lys-Arg-NH-octyl,MIC,[14],≦4 μg/ml
"n-alkyl (C12-40%, C14-50%, C16-10%) dimethylbenzylammonium chloride [Maquat]",MIC,K. pneumoniae; [15],0.6 µg/mL
same,MIC,P. aeruginosa; [16],7.8 µg/mL
